We go through 22 compounds from patent publication US11465984B2, “Compound having ERK kinase inhibitory activity and use thereof” (SHANGHAI HAIHE PHARMACEUTICAL CO., LTD., priority 2017, dated 2022).

In series [1] the test system is patients having melanoma with NRAS mutation and solid tumors with BRAF V600 and non-V600 mutants. Conditions: 600 mg twice a day; cited from earlier work.
The target of series [2] is ERK2 kinase (Homo sapiens (Human), UniProt P28482). The series can be described thus: In vitro enzyme activity assay, ERK2 kinase (Z'-LYTE). It is filed as biochemical. The procedure:
Half inhibitory activity of the compounds of the invention against ERK2 kinase (IC50 value) was determined in this Example.
• Enzyme: extracellular signal-regulated kinase ERK2 kinase (PV3595, Invitrogen) • Kit: Z′-LYTE® Protein Kinase Assay Kit-Ser/Thr 3 Peptide (PV3176, Invitrogen) • Kit components: The substrate Z′-LYTE™ Ser/Thr 3 Peptide (PV3200) • The phosphorylation substrate Z′-LYTE™ Ser/Thr 3 Phospho-peptide (PV3215) • 5× kinase buffer: 250 mM HEPES (pH 7.5), 50 mM MgCl2, • 5 mM EGTA, 0.05% BRIJ-35 (PV3189, Invitrogen) • ATP (PV3227, Invitrogen) • Development Reagent A (PV3295, Invitrogen) • Development Buffer (P3127, Invitrogen) • Stop Reagent (P3094, Invitrogen) • Microplate reader: The multil-mode microplate reader PerkinElmer EnVision® • Microplate: black shallow 384-well microplate (6008269, PerkinElmer) (2). Assay Protocol:
The substrate Z′-LYTE™ Ser/Thr 3 Peptide, the phosphorylation substrate Z′-LYTE™ Ser/Thr 3 Phospho-peptide, 1× kinase buffer (5× kinase buffer was diluted with ultra pure water by five times), ATP, Development Reagent A, Development Buffer, Stop Reagent were balanced to room temperature for use. The screening concentrations for detecting the effect of the compounds of the invention on the ERK kinase activity were seven 3-fold serial dilutions starting from 1 μM (from 0.2 μM for the positive drug control) using 4% DMSO as co-solvent. 5 μL enzyme system (50 mM HEPES pH 7.5, 1 mM EGTA, 10 mM MgCl2, 0.01% Brij-35, 4 uM substrate, 0.8 ng/μL enzyme), 2.5 μL Compound, 2.5 μL 400 μM ATP were added into 384 well microplate, followed by incubation at room temperature for 60 min in the dark. After the reaction was completed, 5 μl the developing agent (Development Reagent A) diluted with the developing buffer (Development Buffer) was added to all reaction wells, followed by incubation at the room temperature for 60 min in the dark. 5 μL the terminating agent was added to each well to terminate the reaction. The fluorescence was determined using the multil-mode microplate reader PerkinElmer EnVision® (excitation wavelength 400 nm, emission wavelength 460 nm and 528 nm).
The inhibition rate of each well was calculated from 100% phosphorylation substrate well and 0% phosphorylation substrate well using the data analysis method below: phosphorylation %=1−{(emission rate×F100%−C100%)/[C0%−C100%+emission rate×(F100%−F0%)]}×100 inhibition %=100×(1−phosphorylation % of the test compound well/phosphorylation % of the 0% inhibition control) • wherein: • emission rate=fluorescence emission of the sample at 445 nm/fluorescence emission of the sample at 520 nm • F100%=the average fluorescence emission of the control well of 100% phosphorylation substrate at 520 nm • F0%=the average fluorescence emission of the control well of 0% phosphorylation substrate at 520 nm • C100%=the average fluorescence emission of the control well of 100% phosphorylation substrate at 445 nm • C0%=the average fluorescence emission of the control well of 0% phosphorylation substrate at 445 nm
Tests were carried out in duplicate. IC50 values were calculated from the inhibition of the kinase by the test compounds at a range of different concentrations.

The mark [3] stands for this setting: class symbols, read-out: ERK2 IC50.
[4] abbreviates: read-out: IC50 against ERK2 kinase.

Read-outs that look alike come from different tables or passages of the source. Bounds are passed on as bounds.

Sequence of ERK2 kinase (P28482 whole entry): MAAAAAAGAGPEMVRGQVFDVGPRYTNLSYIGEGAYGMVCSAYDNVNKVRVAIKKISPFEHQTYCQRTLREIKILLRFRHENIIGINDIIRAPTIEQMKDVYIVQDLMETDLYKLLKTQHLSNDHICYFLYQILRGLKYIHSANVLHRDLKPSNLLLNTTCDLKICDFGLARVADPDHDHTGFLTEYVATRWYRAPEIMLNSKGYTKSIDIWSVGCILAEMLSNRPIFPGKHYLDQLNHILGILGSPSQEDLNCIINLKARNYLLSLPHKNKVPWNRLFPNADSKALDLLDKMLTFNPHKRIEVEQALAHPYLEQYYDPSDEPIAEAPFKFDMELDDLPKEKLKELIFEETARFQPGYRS

For the compound `CC(C)Nc1cc(-c2c[nH]c(C(=O)N[C@H](CO)c3cccc(Cl)c3)c2)c(Cl)cn1` [BVD-523, Ulixertinib], in series [1], the efficacy in patients entry was “lasting efficacy” and the safety in patients result is “acceptable safety”.

For the compound `Cn1nccc1Nc1nccc(-c2cc(F)c3c(c2)CCN3C(=O)Cc2ccc(F)cc2Cl)n1` [Example P36, 2-(2-chloro-4-fluorophenyl)-1-(7-fluoro-5-(2-((1-methyl-1H-pyrazol-5-yl)amino)pyrimidin-4-yl)indolin-1-yl)ethan-1-one], the IC50 in series [2] (setting [3]) fell in the range of 0.01 to 0.1 µM. Take `Cn1nccc1Nc1nccc(-c2cc(F)c3c(c2)CCN3C(=O)Cc2ccncc2Cl)n1` [Example P37, 2-(3-chloropyridin-4-yl)-1-(7-fluoro-5-(2-((1-methyl-1H-pyrazol-5-yl)amino)pyrimidin-4-yl)indolin-1-yl)ethan-1-one]: the IC50 in series [2] (setting [3]) lay within 0.01 to 0.1 µM.

`Cn1nccc1Nc1nccc(-c2cc(F)c3c(c2)CCN3C(=O)Cc2cc(F)ccc2Cl)n1` [Example P38, 2-(2-chloro-5-fluorophenyl)-1-(7-fluoro-5-(2-((1-methyl-1H-pyrazol-5-yl)amino)pyrimidin-4-yl)indolin-1-yl)ethan-1-one]: in series [2] (setting [3]), the IC50 lay in the range of 0.01 to 0.1 µM. Regarding `Cn1nccc1Nc1nccc(-c2cc(F)c3c(c2)CCN3C(=O)Cc2cc(F)ccc2F)n1` [Example P39, 2-(2,5-difluorophenyl)-1-(7-fluoro-5-(2-((1-methyl-1H-pyrazol-5-yl)amino)pyrimidin-4-yl)indolin-1-yl)ethan-1-one], in series [2] (setting [3]), the IC50 was in the range of 0.1 to 1 µM.

On to `O=C(Cc1cccnc1Cl)N1CCc2cc(-c3ccnc(N[C@H]4C[C@@H](O)C4)c3)cc(F)c21` [Example P40], for which the 50% inhibitory concentration (IC50) in series [2] (setting [3]) is 0.01 to 0.1 µM. On to `C[C@H]1Cc2cc(-c3ccnc(Nc4ccnn4C)c3)cc(F)c2N1C(=O)Cc1cccnc1Cl` [Example P42], for which, in series [2] (setting [4]), the 50% inhibitory concentration (IC50) was 0.0027 µM.

For the compound `Cn1nccc1Nc1cc(-c2cc(F)c3c(c2)CCN3C(=O)Cc2cccnc2Cl)ncn1` [Example P44, 2-(2-chloropyridin-3-yl)-1-(7-fluoro-5-(6-((1-methyl-1H-pyrazol-5-yl)amino)pyrimidin-4-yl)indolin-1-yl)ethan-1-one], the half-inhibitory concentration (IC50) in series [2] (setting [3]) was in the range of 0.01 to 0.1 µM. Same read-out and setting: next, `Cc1ncccc1CC(=O)N1CCc2cc(-c3ccnc(Nc4ccnn4C)c3)cc(F)c21` [Example P45, 1-(7-fluoro-5-(2-((1-methyl-1H-pyrazol-5-yl)amino)pyridin-4-yl)indolin-1-yl)-2-(2-methylpyridin-3-yl)ethan-1-one]: at most 0.01 µM; `[2H]C([2H])([2H])n1nccc1Nc1cc(-c2cc(F)c3c(c2)CCN3C(=O)Cc2cccnc2Cl)ccn1` [Example P46, 2-(2-chloropyridin-3-yl)-1-(7-fluoro-5-(2-((1-(deuteriomethyl)-1H-pyrazol-5-yl)amino)pyridin-4-yl)indolin-1-yl)ethan-1-one]: at most 0.01 µM; `Cc1cnc(Nc2ccnn2C)nc1-c1cc(F)c2c(c1)CCN2C(=O)Cc1cccnc1Cl` [Example P47, 2-(2-chloropyridin-3-yl)-1-(7-fluoro-5-(5-methyl-2-((1-methyl-1H-pyrazol-5-yl)amino)pyrimidin-4-yl)indolin-1-yl)ethan-1-one]: at most 0.01 µM. Still for that read-out and setting: the result for `Cc1cnc(Nc2ccnn2C)nc1-c1cc(F)c2c(c1)CC(C)N2C(=O)Cc1cccnc1Cl` (centres unmarked) [Example P48, 2-(2-chloropyridin-3-yl)-1-(7-fluoro-2-methyl-5-(5-methyl-2-((1-methyl-1H-pyrazol-5-yl)amino)pyrimidin-4-yl)indolin-1-yl)ethan-1-one] reads at most 0.01 µM; that for `COCC1Cc2cc(-c3nc(Nc4ccnn4C)ncc3C)cc(F)c2N1C(=O)Cc1cccnc1Cl` (centres unmarked) [Example P49, 2-(2-chloropyridin-3-yl)-1-(7-fluoro-2-(methoxymethyl)-5-(5-methyl-2-((1-methyl-1H-pyrazol-5-yl)amino)pyrimidin-4-yl)indolin-1-yl)ethan-1-one], at most 0.01 µM. Still for that read-out and setting: next, `Cn1nccc1Nc1nccc(-c2cc(F)c3c(c2F)CCN3C(=O)Cc2cccnc2Cl)n1` [Example P50, 2-(2-chloropyridin-3-yl)-1-(4,7-difluoro-5-(2-((1-methyl-1H-pyrazol-5-yl)amino)pyrimidin-4-yl)indolin-1-yl)ethan-1-one]: 0.1 to 1 µM. Take `Cn1nccc1Nc1nccc(-c2cc(F)c3c(c2)CCN3C(=O)Cc2cccc(F)c2Cl)n1` [Example P54, 2-(2-chloro-3-fluorophenyl)-1-(7-fluoro-5-(2-((1-methyl-1H-pyrazol-5-yl)amino)pyrimidin-4-yl)indolin-1-yl)ethan-1-one]: the IC50 in series [2] (setting [3]) lay in the range of 0.01 to 0.1 µM. On the same count and under the same terms, next, `Cn1nccc1Nc1cc(-c2cc(F)c3c(c2)CCN3C(=O)CCc2cccnc2Cl)ccn1` [Example P55, 3-(2-chloropyridin-3-yl)-1-(7-fluoro-5-(2-((1-methyl-1H-pyrazol-5-yl)amino)pyridin-4-yl)indolin-1-yl)propan-1-one]: 0.01 to 0.1 µM; `Cn1nccc1Nc1nccc(-c2cc(F)c3c(c2)CCN3C(=O)Cc2cnccc2Cl)n1` [Example P56, 2-(4-chloropyridin-3-yl)-1-(7-fluoro-5-(2-((1-methyl-1H-pyrazol-5-yl)amino)pyrimidin-4-yl)indolin-1-yl)ethan-1-one]: 0.01 to 0.1 µM. As for `Cn1nccc1Nc1cc(-c2cc(F)c3c(c2)CCN3C(=O)Cc2cccnc2C2CCOCC2)ccn1` [Example P57, 1-(7-fluoro-5-(2-((1-methyl-1H-pyrazol-5-yl)amino)pyridin-4-yl)indolin-1-yl)-2-(2-(tetrahydro-2H-pyran-4-yl)pyridin-3-yl)ethan-1-one], the IC50 in series [2] (setting [3]) fell in the range of 0.1 to 1 µM. Still for that read-out and setting: the result for `COCC1Cc2cc(-c3ccnc(Nc4ccnn4C)c3)cc(F)c2N1C(=O)Cc1cccnc1Cl` (centres unmarked) [Example P58, 2-(2-chloropyridin-3-yl)-1-(7-fluoro-2-(methoxymethyl)-5-(2-((1-methyl-1H-pyrazol-5-yl)amino)pyridin-4-yl)indolin-1-yl)ethan-1-one] reads at most 0.01 µM. On to `CC1CN(C(=O)Cc2cccnc2Cl)c2c(F)cc(-c3ccnc(Nc4ccnn4C)c3)cc21` (centres unmarked) [Example P59, 2-(2-chloropyridin-3-yl)-1-(7-fluoro-3-methyl-5-(2-((1-methyl-1H-pyrazol-5-yl)amino)pyridin-4-yl)indolin-1-yl)ethan-1-one], for which the 50% inhibitory concentration (IC50) in series [2] (setting [4]) was 0.0048 µM. For the compound `Cn1nccc1Nc1cc(-c2cc(F)c3c(c2)CCN3C(=O)C(O)c2cccnc2Cl)ccn1` (centres unmarked) [Example P60, 2-(2-chloropyridin-3-yl)-1-(7-fluoro-5-(2-((1-methyl-1H-pyrazol-5-yl)amino)pyridin-4-yl)indolin-1-yl)-2-hydroxylethan-1-one], the IC50 in series [2] (setting [4]) came to 0.01 µM.

With `O=C(Cc1cccnc1Cl)N1CCc2cc(-c3ccnc(NC4CC4)c3)cc(F)c21` [Example P61, 2-(2-chloropyridin-3-yl)-1-(5-(2-(cyclopropylamino)pyridin-4-yl)-7-fluoroindolin-1-yl)ethan-1-one], the IC50 in series [2] (setting [3]) is 0.01 to 0.1 µM.

One may read the IC50 as the midpoint of a concentration-inhibition curve.
